From patent US10934263B2, “Charged ion channel blockers and methods for use” (Nocion Therapeutics, Inc., priority 2019, dated 2021)

Legend:
[1] = PAMPA membrane permeability assay; format: in vitro ADME; conditions: PAMPA permeability coefficient, GIT lipid, buffer pH 7.4, 4 hours incubation
Protocol: The PAMPA assay (pION, Inc., Woburn Mass.) was used to determine the ability of compounds of the invention to cross an artificial lipid membrane by passive diffusion. Test compounds were dissolved in DMSO (10 mM) and diluted 200-fold in buffer (pION Inc., pH 7.4) to provide 50 uM stock solutions. Buffer (150 μL) was added to a UV blank plate and stock solutions (150 μL) were transferred to a UV reference plate. The blank and reference spectrum were read using a spectrophotometer. Stock solutions (200 μL) were added to the donor plate of the PAMPA sandwich plate and an accept plate painted with GIT lipid (pION Inc, 5 μL) was placed on top. Buffer (200 μL) was added to the acceptor plate and the PAMPA sandwich plate was incubated for 4 hours. Aliquots (150 μL) from the acceptor plate were added to a UV plate and read as acceptor spectrum. Aliquots (150 μL) of the donor solutions were added to a UV analysis plate and read as donor spectrum. The permeability coefficient of test compounds was calculated using PAMPA Explorer™ software (version 3.5.0.4) based on the AUC of the reference plate, the donor plate, and the acceptor plate.

[2] = target: T1, NaV1.7 (Homo sapiens, UniProt Q15858); assay: Whole cell patch clamp, internal block of NaV1.7 current (compound in internal solution); format: cell-based; conditions: compound applied internally, manual patch clamp, read-out: Nav1.7 Intracellular Inhibition
T1 construct: expressed in transfected cells; tetracycline-inducible, kept under hygromycin and blasticidin
Protocol: Representative compounds of the invention were synthesized according to the described methods and tested for the ability to inhibit voltage-gated sodium channels.
NaV1.7 was expressed upon induction with tetracycline. Cells were cultured in DMEM containing 10% dialyzed Fetal Bovine Serum (VWR, Radnor, Pa.), 1% Glutamax (VWR, Radnor, Pa.), 1% Penicillin-Streptomycin (VWR, Radnor, Pa.), 100 mg/L Hygromycin (Thermo Fisher Scientific, Waltham, Mass. and 5 mg/L Blasticidin (Alfa Aesar, Haverhill, Mass.). Cells were grown and maintained at 37° C. in a humidified environment containing 10% CO2 in air. Cells were detached from the culture flask for passage and harvested using 0.05% Trypsin-EDTA (Thermo Fisher Scientific, Waltham, Mass.). To induce NaV1.7, cells were induced with tetracycline (0.1-1 μg/mL, IBI Scientific, Peosta, Iowa) the day before recording and plated onto 24-well plates. Cells were washed with DPBS (VWR, Radnor, Pa.), trypsinized and then triturated five times in 10 mL of growth media to break apart cell aggregates. For one 24-well plate, 2 mL of cell suspension was mixed with 23 mL of fresh growth media and 0.1-1 μg/mL tetracycline added. 1 ml of mixed media with cells was then added to each well of a 24-well plate, with a 12 mm coverslip already placed in the bottom of the well. Cells were then incubated in 37° C. and 10% CO2 overnight.
The intracellular solution contained the following (in mM) CsCl 135, NaCl 10, EGTA 10, HEPES 10, MgCl2 2, adjusted to pH 7.2 with CsOH. The external solution was a normal Ringer solution containing (in mM) NaCl 155, HEPES 10, glucose 10, KCl 3.5, CaCl2 1.5, MgCl2 1 adjusted to pH 7.4 with NaOH. CsCl is from Alfa Aesar, Haverhill, Mass. All other chemicals are from Sigma-Aldrich, St. Louis, Mo. In order to test the degree of internal block by test compounds the compounds were dissolved in internal solution at the indicated test concentration. […] In order to test the degree of external block by test compounds the compounds were dissolved in external solution at the indicated test concentration.
18-24 hours after cells were induced with tetracycline, coverslips were placed into a chamber filled with Normal Ringer solution at room temperature and the chamber placed on a microscope. Pipettes were pulled from borosilicate glass on a P97 puller (Sutter Instrument, Novato, Calif.) and polished with a MF-830 Microforge (Narishige International USA, Inc, Amityville, N.Y.) to have a resistance of 1.5-2.5 MΩ when filled with CsCl internal solution at room temperature. Healthy cells (those that are round and translucent with no visible blemishes) were chosen for seal formation. A seal was formed between the pipette and the cell, and a brief pulse of suction was used to “break in” and establish the whole-cell configuration. The membrane potential was held at −100 mV before the voltage protocol began. Only cells with series resistance between 1.5-5 MΩ were retained for analysis. The voltage protocol was as follows: Cells were held at −100 mV for 12 ms followed by a hyperpolarizing step to −105 mV for 12 ms to monitor the leak. Cells were then stepped back to −100 mV for 40 ms. Cells were then depolarized to −20 mV for 10 ms and then returned to −100 mV for 26 ms.
Once the recording was started, the voltage protocol was run at 30 second intervals for 5 minutes to get a stable baseline. This was followed by four 30-second periods of 5 Hz stimulation of the same voltage protocol separated by 1 minute of rest which was then followed by 0.33 Hz stimulation after the last train. Currents were recorded using PatchMaster software with Heka EPC10 (HEKA Electronics, Lambrecht, Germany). Only cells with inward current amplitudes at −20 mV between 400 pA and 4 nA were accepted. In addition, cells having leak currents greater than 10% of their current amplitudes were discarded. […]

T1 sequence (Q15858 whole entry): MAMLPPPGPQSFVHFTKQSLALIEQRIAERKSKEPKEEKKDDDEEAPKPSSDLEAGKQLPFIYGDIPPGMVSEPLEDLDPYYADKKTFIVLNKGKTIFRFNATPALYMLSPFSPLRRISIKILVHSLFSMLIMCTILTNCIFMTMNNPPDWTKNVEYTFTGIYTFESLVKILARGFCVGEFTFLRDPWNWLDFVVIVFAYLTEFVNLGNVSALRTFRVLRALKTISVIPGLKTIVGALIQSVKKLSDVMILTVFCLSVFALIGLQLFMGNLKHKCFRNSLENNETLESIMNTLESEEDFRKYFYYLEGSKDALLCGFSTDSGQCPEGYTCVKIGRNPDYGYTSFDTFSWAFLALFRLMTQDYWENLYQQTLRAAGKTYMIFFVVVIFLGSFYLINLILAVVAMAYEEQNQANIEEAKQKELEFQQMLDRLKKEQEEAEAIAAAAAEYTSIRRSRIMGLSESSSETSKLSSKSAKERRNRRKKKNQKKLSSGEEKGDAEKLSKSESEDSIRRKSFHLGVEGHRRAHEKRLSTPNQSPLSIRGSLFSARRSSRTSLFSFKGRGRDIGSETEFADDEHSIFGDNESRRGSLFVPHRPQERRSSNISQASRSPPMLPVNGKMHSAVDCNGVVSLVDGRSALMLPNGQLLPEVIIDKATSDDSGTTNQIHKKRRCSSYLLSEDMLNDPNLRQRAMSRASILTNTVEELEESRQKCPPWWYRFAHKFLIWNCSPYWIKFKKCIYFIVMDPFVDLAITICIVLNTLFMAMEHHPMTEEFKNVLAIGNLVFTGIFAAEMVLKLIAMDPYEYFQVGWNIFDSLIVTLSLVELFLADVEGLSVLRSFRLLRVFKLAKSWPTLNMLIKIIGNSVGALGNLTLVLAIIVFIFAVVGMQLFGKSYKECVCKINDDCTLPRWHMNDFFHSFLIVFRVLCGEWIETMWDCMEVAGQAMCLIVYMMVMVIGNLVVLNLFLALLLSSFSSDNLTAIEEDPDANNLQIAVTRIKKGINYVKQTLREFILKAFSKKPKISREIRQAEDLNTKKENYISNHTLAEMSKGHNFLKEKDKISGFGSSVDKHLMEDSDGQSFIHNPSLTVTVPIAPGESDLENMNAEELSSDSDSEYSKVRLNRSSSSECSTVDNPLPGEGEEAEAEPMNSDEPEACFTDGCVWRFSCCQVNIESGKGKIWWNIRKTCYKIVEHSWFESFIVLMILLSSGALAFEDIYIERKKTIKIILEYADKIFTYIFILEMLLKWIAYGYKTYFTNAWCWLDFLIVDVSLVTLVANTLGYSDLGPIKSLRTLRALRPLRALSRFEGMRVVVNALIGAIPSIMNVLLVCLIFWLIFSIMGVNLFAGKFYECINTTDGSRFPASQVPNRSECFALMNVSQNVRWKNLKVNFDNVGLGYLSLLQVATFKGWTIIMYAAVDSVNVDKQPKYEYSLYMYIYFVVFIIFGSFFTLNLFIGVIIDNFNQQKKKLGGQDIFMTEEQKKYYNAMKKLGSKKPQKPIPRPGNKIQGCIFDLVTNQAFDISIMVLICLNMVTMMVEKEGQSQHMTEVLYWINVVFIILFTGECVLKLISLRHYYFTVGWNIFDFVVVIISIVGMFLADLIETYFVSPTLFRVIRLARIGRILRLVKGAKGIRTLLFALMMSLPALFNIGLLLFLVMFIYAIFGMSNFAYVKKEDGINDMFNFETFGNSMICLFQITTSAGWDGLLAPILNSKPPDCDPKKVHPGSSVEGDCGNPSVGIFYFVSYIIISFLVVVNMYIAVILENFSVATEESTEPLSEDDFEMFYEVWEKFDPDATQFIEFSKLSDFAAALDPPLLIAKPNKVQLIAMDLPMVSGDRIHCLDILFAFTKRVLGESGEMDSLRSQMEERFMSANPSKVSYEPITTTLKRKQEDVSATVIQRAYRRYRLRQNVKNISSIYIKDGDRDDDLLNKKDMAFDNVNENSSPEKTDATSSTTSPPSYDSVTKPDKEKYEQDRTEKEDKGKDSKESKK

PAMPA (10^−6 cm/s) [1]	inhibition at 32 µM [2] [%]	inhibition at 10 µM [2] [%]	SMILES
+ (<0.1 10^−6 cm/s)	40 to 70		CCC(C(=O)Nc1c(C)cccc1C)[n+]1ccn(C)c1.[Br-] (stereo not shown) [Compound 4A, 3-(1-((2,6-dimethylphenyl)amino)-1-oxobutan-2-yl)-1-methyl-1H-imidazol-3-ium bromide]
	70 to 95		Cc1cccc(C)c1NC(=O)C[n+]1cccc(C2CCCCC2)c1 [Compound 20A]
+ (<0.1 10^−6 cm/s)	< 40		Cc1cc(C#N)cc(C)c1NC(=O)C[n+]1ccccc1.[Br-] [Compound 11A, 1-(2-((4-cyano-2,6-dimethylphenyl)amino)-2-oxoethyl) pyridin-1-ium bromide]
		70 to 95	Cc1cccc(C)c1NC(=O)C[n+]1cccc(C#N)c1 [Compound 52]
+ (<0.1 10^−6 cm/s)		40 to 70	Cc1cccc(C)c1NC(=O)C[n+]1ccn(C(C)C)c1 [Compound 58]
+ (<0.1 10^−6 cm/s)		40 to 70	Cc1cccc(C)c1NC(=O)C[n+]1cccc(C(=O)N(C)C)c1 [Compound 41]
++ (0.1-2.0 10^−6 cm/s)			Cc1cccc(C)c1NC(=O)C[n+]1ccn(-c2ccc(Cl)cc2)c1 [Compound 64]
		70 to 95	Cc1cccc(C)c1NC(=O)C[n+]1ccn(-c2ccccc2)c1 [Compound 37]
		40 to 70	Cc1cccc(C)c1NC(=O)C[n+]1cc2ccccn2c1 [Compound 35]
		70 to 95	Cc1cccc(C)c1NC(=O)C[n+]1cccc(Cl)c1 [Compound 45]
+ (<0.1 10^−6 cm/s)	< 40		COc1cc(C)c(NC(=O)C[n+]2ccccc2)c(C)c1.[Br-] [Compound 10A, 1-(2-((4-methoxy-2,6-dimethylphenyl)amino)-2-oxoethyl) pyridin-1-ium bromide]
+ (<0.1 10^−6 cm/s)	< 40		Cc1cc(F)cc(C)c1NC(=O)C[n+]1ccccc1.[Br-] [Compound 7A, 1-(2-((4-fluoro-2,6-dimethylphenyl)amino)-2-oxoethyl) pyridin-1-ium bromide]
+ (<0.1 10^−6 cm/s)		70 to 95	Cc1cccc(C)c1NC(=O)C[n+]1ccn(C(C)(C)C)c1 [Compound 36]
+ (<0.1 10^−6 cm/s)	> 95		Cc1cccc(C)c1NC(=O)C[n+]1cccc2ccccc21.[Br-] [Compound 18A]
+ (<0.1 10^−6 cm/s)	< 40		Cc1cc(Cl)cc(C)c1NC(=O)C[n+]1ccccc1.[Br-] [Compound 9A, 1-(2-((4-chloro-2,6-dimethylphenyl)amino)-2-oxoethyl) pyridin-1-ium bromide]
+ (<0.1 10^−6 cm/s)	< 40		Cc1cccc(C)c1NC(=O)C[n+]1ccc(-c2ccccc2)cc1.[Br-] [Compound 14A]
+ (<0.1 10^−6 cm/s)			Cc1cccc(C)c1NC(=O)C[n+]1cccn1C1CCCCC1.[Br-] [Compound 28A]
		< 40	Cc1cccc(C)c1NC(=O)C[n+]1cccc(O)c1 [Compound 42]
		> 95	Cc1cccc(C)c1OC(=O)C[n+]1cccn1C1CCCCC1 [Compound 111]
		70 to 95	Cc1cccc(C)c1NC(=O)C[n+]1ccn(Cc2ccccc2)c1 [Compound 38]

PAMPA (10^−6 cm/s) [1]	inhibition at 32 µM [2] [%]	inhibition at 10 µM [2] [%]	SMILES
++ (0.1-2.0 10^−6 cm/s)	> 95		Cc1cccc(C)c1NC(=O)C[n+]1ccc2ccccc2c1.[Br-] [Compound 15A]
		70 to 95	Cc1cccc(C)c1NC(=O)C[n+]1cccc(C(C)C)c1 [Compound 31A]
		70 to 95	CCCn1cc[n+](CC(=O)Nc2c(C)cccc2C)c1 [Compound 57]
		70 to 95	Cc1ccc[n+](CC(=O)Nc2c(C)cccc2C)c1 [Compound 39]
++ (0.1-2.0 10^−6 cm/s)			CCNC(=O)Cn1ccc[n+]1CC(=O)Nc1c(C)cccc1C.[Br-] [Compound 30A, 2-(2-((2,6-dimethylphenyl)amino)-2-oxoethyl)-1-(2-(ethylamino)-2-oxoethyl)-1H-pyrazol-2-ium bromide]
+ (<0.1 10^−6 cm/s)	< 40		Cc1cc(C)c(NC(=O)C[n+]2ccccc2)c(C)c1.[Br-] [Compound 8A, 1-(2-(mesitylamino)-2-oxoethyl)pyridin-1-ium bromide]
+ (<0.1 10^−6 cm/s)			Cc1cccc(C)c1NC(=O)C[n+]1cccn1CC(C)C.[Br-] [Compound 27A]
	70 to 95		CCc1cc[n+](CC(=O)Nc2c(C)cccc2C)cc1 [Compound 19A]
+ (<0.1 10^−6 cm/s)	40 to 70		Cc1cccc(C)c1NC(=O)C[n+]1ccn(C)c1.[Br-] [Compound 2A, 3-(2-((2,6-dimethylphenyl)amino)-2-oxoethyl)-1-methyl-1H-imidazol-3-ium bromide]
+ (<0.1 10^−6 cm/s)	70 to 95		Cc1cccc(C)c1NC(=O)C[n+]1ccccc1C.[Br-] [Compound 5A, 1-(2-((2,6-dimethylphenyl)amino)-2-oxoethyl)-2-methylpyridin-1-ium bromide]
		40 to 70	CCOC(=O)c1c[n+](CC(=O)Nc2c(C)cccc2C)cn1C [Compound 61]
		40 to 70	Cc1cccc(C)c1NC(=O)C[n+]1ccnc(C)c1C [Compound 55]
+ (<0.1 10^−6 cm/s)		40 to 70	CCCCCCn1cc[n+](CC(=O)Nc2c(C)cccc2C)c1 [Compound 63]
		70 to 95	COc1ccc[n+](CC(=O)Nc2c(C)cccc2C)c1 [Compound 43]
		70 to 95	Cc1cccc(C)c1NC(=O)C[n+]1cccc(F)c1 [Compound 44]
++ (0.1-2.0 10^−6 cm/s)	70 to 95		CCC(C(=O)Nc1c(C)cccc1C)[n+]1ccccc1.[Br-] (stereo not shown) [Compound 3A, 1-(1-((2,6-dimethylphenyl)amino)-1-oxobutan-2-yl)pyridin-1-ium bromide]
+ (<0.1 10^−6 cm/s)	70 to 95		Cc1cccc(C)c1NC(=O)C[n+]1cc(-c2ccccc2)n(C)c1.[Br-] [Compound 24A]
+++ (2.0-10.010^−6 cm/s)		40 to 70	CCOC(=O)Cn1cc[n+](CC(=O)Nc2c(C)cccc2C)c1 [Compound 60]
++ (0.1-2.0 10^−6 cm/s)	70 to 95		Cc1cccc(C)c1NC(=O)C[n+]1ccccc1.[Br-] [Compound 1A, 1-(2-((2,6-dimethylphenyl)amino)-2-oxoethyl) pyridin-1-ium bromide]
